Where a name gives a salt, the structure may show the parent alone. Read-outs that look alike come from different tables or passages of the source. Marks after values point to notes of the source that are not given here.
Columns and labels:
Leptosphaeria nodorum = Leptosphaeria nodorum test (wheat) / protective; assay type: in vivo; settings: 500 ppm active compound, protective spray, evaluated 7-9 days after inoculation
Description: Leptosphaeria nodorum Test (Wheat)/Protective
Solvent: 49 parts by weight of N,N-dimethylformamide
Emulsifier: 1 part by weight of alkylaryl polyglycol ether
To produce a suitable preparation of active compound, 1 part by weight of active compound is mixed with the stated amounts of solvent and emulsifier, and the concentrate is diluted with water to the desired concentration.
To test for protective activity, young wheat plants are sprayed with the preparation of active compound at the stated application rate. […] The plants are then placed in a greenhouse at 90% rel. atmospheric humidity and a temperature of 22° C.
Evaluation is carried out 7-9 days after the inoculation. 0% means an efficacy which corresponds to that of the control, whereas an efficacy of 100% means that no infection is observed.

Alternaria solani = test: Alternaria test (tomato) / protective; assay type: in vivo; settings: 500 ppm active compound, protective spray, evaluated 7 days after inoculation
Procedure, shortened: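 Young tomato plants sprayed protectively with compound formulated in DMF with alkylaryl polyglycol ether emulsifier and diluted in water to the application rate. After inoculation, plants held at 96% rel. humidity and 20° C. Efficacy scored 7 days post-inoculation: 0% equals untreated control, 100% no infection.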

Fusarium graminearum = assay type: cell-based; settings: 50 μM; for % Inhibition of DON/AcDON at 50 μM: 7 days at 28° C.
Pyrenophora teres = test: In vivo test on Pyrenophora teres (barley net blotch); settings: dose of 500 ppm; barley plants; grading 12 days after contamination
Description: In Vivo Test on Pyrenophora teres (Barley Net Blotch)
The active ingredients tested are prepared by homogenization in a mixture of acetone/Tween/DMSO, then diluted with water to obtain the desired active material concentration.
Barley plants (Plaisant variety), sown on a 50/50 peat soil-pozzolana substrate in starter cups and grown at 12° C., are treated at the 1-leaf stage (10 cm tall) by spraying with the active ingredient prepared as described above.
Plants, used as controls, are treated with an aqueous solution not containing the active material.
After 24 hours, the plants are contaminated by spraying them with an aqueous suspension of Pyrenophora teres spores (12,000 spores per ml). The spores are collected from a 12-day-old culture. The contaminated barley plants are incubated for 24 hours at about 20° C. and at 100% relative humidity, and then for 12 days at 80% relative humidity.
Grading is carried out 12 days after the contamination, in comparison with the control plants.

physchem = settings: pH 2.7

Compound	log p (physchem)	also measured
COc1ccc(Cn2cc(-c3ccncc3)c(-c3ccc(Cl)s3)n2)cc1 [Example 104]		efficacy (Leptosphaeria nodorum): 80%; log p (pH 2.7): 2.74^[b]
CC(=O)Nc1cc(-c2cn(CC(C)C)nc2-c2ccc(Cl)s2)cc[n+]1[O-] [Example 80]		efficacy (Alternaria solani): 94%; efficacy (Leptosphaeria nodorum): 70%; log p (pH 2.3): 2.86^[a]
CCC(C)n1cc(-c2ccnc(Cl)c2)c(-c2ccc(Cl)s2)n1 (centres unmarked) [Example 318]		efficacy (Leptosphaeria nodorum): 70%; log p (pH 2.7): 4.89^[b]
FCCn1cc(-c2ccncc2)c(-c2ccc(Br)s2)n1 [Example 388]		efficacy (Alternaria solani): 100%; efficacy (Leptosphaeria nodorum): 80%; % Inhibition of fungal growth at 50 μM (Fusarium graminearum): 100%; % Inhibition of DON/AcDON at 50 μM (Fusarium graminearum): 99%; log p (pH 2.7): 1.49^[b]; logP value of the minor isomer (pH 2.7): (1.34)
CCC(C)n1cc(-c2ccnc(NC(=O)C(C)C)n2)c(-c2ccc(Cl)s2)n1 (centres unmarked) [Example 173]		efficacy (Leptosphaeria nodorum): 89%; protection (Pyrenophora teres): 95%; log p (pH 2.3): 3.72^[a]
FC(F)Cn1cc(-c2ccncc2)c(-c2ccc(Br)s2)n1 [Example 384]		efficacy (Alternaria solani): 94%; efficacy (Leptosphaeria nodorum): 90%; % Inhibition of fungal growth at 50 μM (Fusarium graminearum): 100%; % Inhibition of DON/AcDON at 50 μM (Fusarium graminearum): 99%; log p (pH 2.7): 1.67^[b]; logP value of the minor isomer (pH 2.7): (1.51)
CC1(Cn2cc(-c3ccncc3)c(-c3ccc(Br)s3)n2)CC1(Cl)Cl (centres unmarked) [Example 386]		efficacy (Alternaria solani): 89%; efficacy (Leptosphaeria nodorum): 80%; % Inhibition of fungal growth at 50 μM (Fusarium graminearum): 0%; % Inhibition of DON/AcDON at 50 μM (Fusarium graminearum): 99%; log p (pH 2.7): 2.75^[b]; logP value of the minor isomer (pH 2.7): (2.50)
CCC(CC)n1cc(-c2ccncc2)c(-c2ccc(Br)s2)n1 [Example 392]		efficacy (Alternaria solani): 100%; efficacy (Leptosphaeria nodorum): 70%; % Inhibition of fungal growth at 50 μM (Fusarium graminearum): 97%; % Inhibition of DON/AcDON at 50 μM (Fusarium graminearum): 99%; log p (pH 2.7): 2.39^[b]; logP value of the minor isomer (pH 2.7): (2.22)
CSc1nccc(C(=CN(C)C)C(=O)c2ccc(Cl)s2)n1 [3-(Dimethylamino)-1-(5-chloro-2-thienyl)-2-[2-(methylsulfanyl)pyrimidin-4-yl]prop-2-en-1-one]	2.27	
CCC(C)n1ccc(-c2cccs2)n1 (centres unmarked) [1-sec-Butyl-3-(2-thienyl)-1H-pyrazole]	3.1	
CCCc1c(I)c(-c2sccc2C)nn1C [4-Iodo-1-methyl-3-(3-methyl-2-thienyl)-5-propyl-1H-pyrazole]	4.03	
CCCc1nn(C)c(-c2sccc2C)c1I [4-Iodo-1-methyl-5-(3-methyl-2-thienyl)-3-propyl-1H-pyrazole]	4.27	
CSc1nccc(-c2c[nH]nc2-c2ccc(Cl)s2)n1 [4-[3-(5-Chloro-2-thienyl)-1H-pyrazol-4-yl]-2-(methylsulfanyl)pyrimidine]	2.78	
Fc1ccc(-c2n[nH]cc2-c2ccncc2)s1 [4-[3-(5-Fluoro-2-thienyl)-1H-pyrazol-4-yl]pyridine]	0.57	
CCCn1cc(I)c(-c2cc(C)cs2)n1 [4-Iodo-3-(4-methyl-2-thienyl)-1-propyl-1H-pyrazole]	4.2	
CC(=O)N(C(C)=O)c1nccc(-c2cn(C(C)C)nc2-c2ccc(Cl)s2)n1 [N-Acetyl-N-{4-[3-(5-chloro-2-thienyl)-1-isopropyl-1H-pyrazol-4-yl]pyrimidin-2-yl}acetamide]	3.33	
FC(F)(F)c1ccc(-c2n[nH]cc2-c2ccncc2)s1 [4-[3-(5-trifluoromethyl-2-thienyl)-1H-pyrazol-4-yl]pyridine hydrochloride]	1.34	
Cc1c(Br)c(-c2ccc(Cl)s2)nn1C(C)C [4-Bromo-3-(5-chloro-2-thienyl)-1-isopropyl-5-methyl-1H-pyrazole]	5.35	
CCC(C)n1cc(-c2ccnc(C#CC3CC3)c2)c(-c2ccc(Cl)s2)n1 (centres unmarked) [4-[1-sec-Butyl-3-(5-chloro-2-thienyl)-1H-pyrazol-4-yl]-2-(cyclopropylethynyl)pyridine]	4.56	
CC(C)n1cc(-c2ccnc(NCc3ccccc3)n2)c(-c2ccc(Cl)s2)n1 [N-Benzyl-4-[3-(5-chloro-2-thienyl)-1-isopropyl-1H-pyrazol-4-yl]pyrimidin-2-amine]	3.81	
Cc1csc(-c2ccn(C)n2)c1 [1-Methyl-3-(4-methyl-2-thienyl)-1H-pyrazole]	2.14	
CCC(C)n1nc(-c2ccc(Cl)s2)c(-c2ccncc2)c1SC (centres unmarked) [4-[3-(5-Chloro-2-thienyl)-5-methylsulfanyl-1-secbutyl-1H-pyrazol-4-yl]pyridine]	3.35	
CC(C)Cn1cc(-c2ccnc(N)n2)c(-c2ccc(Cl)s2)n1 [Example 95]		efficacy (Alternaria solani): 70%; efficacy (Leptosphaeria nodorum): 80%; log p (pH 2.3): 2.35^[a]
Cc1csc(-c2cc[nH]n2)c1 [3-(4-Methyl-2-thienyl)-1H-pyrazole]	1.72	
CCC(C)n1cc(I)c(-c2cccs2)n1 (centres unmarked) [1-sec-Butyl-4-iodo-3-(2-thienyl)-1H-pyrazole]	4.12	

Compound	log p (physchem)	also measured
CC(C)n1nccc1-c1cc(Br)c(Br)s1 [5-(4,5-Dibromo-2-thienyl)-1-isopropyl-1H-pyrazole]	4.44	
CSc1ccc(-c2c(-c3ccncc3)cnn2C(C)C)s1 [4-[1-Isopropyl-5-(5-methylsulfanyl-2-thienyl)-1H-pyrazol-4-yl]pyridine]	1.78	
Cc1c(Br)c(-c2ccc(Cl)s2)nn1C [4-Bromo-3-(5-chloro-2-thienyl)-1,5-dimethyl-1H-pyrazole]	3.92	
CC(C)n1nc(C2CC2)c(-c2ccncc2)c1-c1ccc(Cl)s1 [4-[3-Cyclopropyl-1-isopropyl-5-(5-chloro-2-thienyl)-1H-pyrazol-4-yl]pyridine]	2.44	
CN(C)C=CC(=O)c1cc(Br)cs1 [1-(4-Bromo-2-thienyl)-3-(dimethylamino)prop-2-en-1-one]	1.94	
CCCc1cc(-c2sccc2C)nn1C [1-Methyl-3-(3-methyl-2-thienyl)-5-propyl-1H-pyrazole]	3.34	
CCC(C)n1cc(-c2ccnc(NC(C)=O)c2)c(-c2ccc(Cl)s2)n1 (centres unmarked) [N-{4-[1-sec-butyl-3-(5-chloro-2-thienyl)-1H-pyrazol-4-yl]pyridin-2-yl}acetamide]	2.94	
Cc1csc(-c2nn(C(C)C)cc2I)c1 [4-Iodo-1-isopropyl-3-(4-methyl-2-thienyl)-1H-pyrazole]	4.26	
Cc1csc(-c2nn(C)cc2I)c1 [4-Iodo-1-methyl-3-(4-methyl-2-thienyl)-1H-pyrazole]	3.18	
CC(C)Cn1cc(-c2ccncc2)c(-c2ccc(C#N)s2)n1 [4-[1-Isobutyl-3-(5-cyano-2-thienyl)-1H-pyrazol-4-yl]pyridine]	1.74	
CCn1nccc1-c1cc(Br)cs1 [5-(4-Bromo-2-thienyl)-1-ethyl-1H-pyrazole]	2.92	
CCn1cc(I)c(-c2cccs2)n1 [1-Ethyl-4-iodo-3-(2-thienyl)-1H-pyrazole]	3.13	
CCC(C)n1cc(-c2ccncc2)c(-c2cc(Cl)cs2)n1 (centres unmarked) [4-[1-sec-Butyl-3-(4-chloro-2-thienyl)-1H-pyrazol-4-yl]pyridine]	1.83	
CC(C)n1nccc1-c1cc(Br)cs1 [5-(4-Bromo-2-thienyl)-1-isopropyl-1H-pyrazole]	3.44	
CCC(C)n1ncc(I)c1-c1cc(Cl)cs1 (centres unmarked) [1-sec-Butyl-5-(4-chloro-2-thienyl)-4-iodo-1H-pyrazole]	4.72	
CCn1cc(I)c(-c2cc(Cl)cs2)n1 [3-(4-Chloro-2-thienyl)-1-ethyl-4-iodo-1H-pyrazole]	4.02	
CCn1ncc(I)c1-c1cc(Cl)cs1 [5-(4-Chloro-2-thienyl)-1-ethyl-4-iodo-1H-pyrazole]	3.76	
O=C(Cc1ccncc1)c1ccc(Cl)s1 [1-(5-chloro-2-thienyl)-2-(pyridin-4-yl)ethanone]	1.17	
CN(C)C=CC(=O)c1cc(Br)c(Br)s1 [1-(4,5-Dibromo-2-thienyl)-3-(dimethylamino)prop-2-en-1-one]	2.68	
CC(=O)c1ccc(-c2n[nH]cc2-c2ccncc2)s1 [1-{5-[4-(pyridin-4-yl)-1H-pyrazol-3-yl]-2-thienyl}ethanone hydrochloride]	0.62	
CC(=O)Nc1cc(-c2cn(CC(C)C)nc2-c2ccc(Cl)s2)cc[n+]1[O-] [N-{4-[3-(5-chloro-2-thienyl)-1-isobutyl-1H-pyrazol-4-yl]-1-oxidopyridin-2-yl}acetamide]	2.86	
CCn1cc(I)c(-c2cc(C)cs2)n1 [1-Ethyl-4-iodo-3-(4-methyl-2-thienyl)-1H-pyrazole]	3.7	
CC#Cc1[nH]nc(-c2ccc(Cl)s2)c1-c1ccncc1 [4-[3-(5-Chloro-2-thienyl)-5-(prop-1-yn-1-yl)-1H-pyrazol-4-yl]pyridine]	1.44	
Clc1csc(-c2n[nH]cc2I)c1 [3-(4-chloro-2-thienyl)-4-iodo-1H-pyrazole]	2.68	
